Experimental findings from patent publication US5298508A, “Irreversible inhibitors of adenosine receptors” (priority 1992, dated 1994) are described below.

The target in test [1] is T1, A1 adenosine receptors (Rattus norvegicus, UniProt P25099).
T1 construct: A1 adenosine receptors in rat cerebral cortex membranes; from tissue; host or cells: rat cerebral cortex membranes
T1 sequence (P25099 1-326): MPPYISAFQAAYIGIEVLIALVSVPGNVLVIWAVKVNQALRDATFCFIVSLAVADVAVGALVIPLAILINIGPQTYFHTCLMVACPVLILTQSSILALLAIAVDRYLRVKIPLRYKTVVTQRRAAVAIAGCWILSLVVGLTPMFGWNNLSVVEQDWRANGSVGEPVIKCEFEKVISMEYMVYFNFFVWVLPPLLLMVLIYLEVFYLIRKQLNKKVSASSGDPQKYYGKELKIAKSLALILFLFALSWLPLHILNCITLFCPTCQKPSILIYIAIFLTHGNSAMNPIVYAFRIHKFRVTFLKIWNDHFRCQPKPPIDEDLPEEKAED
Put plainly: inhibition of binding of [3H]N6-phenylisopropyladenosine ([3H]PIA) to A1 adenosine receptors in rat cerebral cortex membranes. How it is done:
Ukena et al., FEBS Letters 209;122, 1986.
For the biochemical assays, stock solutions of xanthines in the millimolar concentration range in dimethylsulfoxide were prepared and stored frozen. The solutions were warmed to 50° C. prior to dilution in aqueous medium. […] Acad. Sci. USA, 83:4089, 1986. Inhibition of binding by a range of concentrations of a xanthine or adenosine derivative was assessed in triplicate in at least three separate experiments.

Test [2] deals with T2, central A1 receptors (Bos taurus, UniProt P28190).
T2 construct: A1 -adenosine receptors in membranes form calf brain; from tissue; host or cells: calf brain membranes
T2 sequence (P28190 1-326): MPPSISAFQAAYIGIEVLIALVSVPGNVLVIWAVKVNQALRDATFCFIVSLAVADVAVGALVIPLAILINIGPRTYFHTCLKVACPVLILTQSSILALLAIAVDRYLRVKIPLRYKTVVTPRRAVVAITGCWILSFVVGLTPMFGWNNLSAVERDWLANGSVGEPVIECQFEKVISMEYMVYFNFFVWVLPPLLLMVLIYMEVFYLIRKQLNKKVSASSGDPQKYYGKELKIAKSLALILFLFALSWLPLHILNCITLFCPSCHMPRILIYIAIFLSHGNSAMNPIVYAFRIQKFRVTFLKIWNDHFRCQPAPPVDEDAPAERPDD
Put plainly: inhibition of radioligand binding at central A1 receptors, calf brain membranes. An excerpt: ^b against [^125 I]APNEA (i.e. N^6
^b against [^125 I]APNEA;
The compounds, at concentrations relative to the Ki -values obtained, were screened for the ability to inhibit competitive binding of the radioligands [^3 H]PIA to rat brain membranes and [^3 H]XAC to bovine brain membranes, a shown in Table 1.

For test [3], the target named is T3, central A1 receptors (Rattus norvegicus, UniProt P25099).
T3 construct: A1 -adenosine receptors in rat brain membranes; from tissue; host or cells: rat brain membranes
T3 sequence (P25099 1-326): T1 sequence (P25099 1-326)
Type of test: binding. As to conditions: for irreversible inhibition of central A1-adenosine receptors: result in words.

The mark [4] stands for this setting: Table I, rat, against [3H]PIA, read-out: Ki at central A1 receptors, rat.
Setting [5] is: Table I, calf, against [125I]APNEA, read-out: Ki at central A1 receptors, calf.
Where [6] appears, read: read-out: Ki at central A1 receptors, rat.
Setting [7] is: read-out: Ki at central A1 receptors, calf.

Where two headings read alike, the source gives them in different places.

In the case of `CCCn1c(=O)c2[nH]c(-c3ccc(OCC(=O)NCCN)cc3)nc2n(CCC)c1=O` [Compound 3, reference compound], the Ki is 1.1 ± 0.05 nM in test [1] (setting [4]) and 0.2 nM in test [2] (setting [5]).

In the case of `CCCn1c(=O)c2nc(-c3ccc(OCC(=O)NCCN=C(S)Nc4ccc(S(=O)(=O)O)cc4)cc3)[nH]c2n(CCC)c1=O` [Compound 12], the inhibition constant (Ki) in test [1] (setting [6]) is 430 nM.

Regarding `CCCn1c(=O)c2nc(-c3ccc(OCC(=O)NCCN=C(S)Nc4ccc(OC)cc4)cc3)[nH]c2n(CCC)c1=O` [Compound 7], in test [1] (setting [4]), the Ki is 20 nM.

With `O=C(Cc1ccc(NC(=O)Cc2ccc(Nc3ncnc4c3ncn4[C@@H]3O[C@H](CO)[C@@H](O)[C@H]3O)cc2)cc1)NCCNC(=S)Nc1cccc(N=C=S)c1` [Compound 28], the Ki in test [1] is 0.86 nM; in test [2] it was 0.1 nM. The inhibition at 0.05 µM in test [3] (read-out: % inhib (conc)) is above 80%. Further, in test [3], the “irreversible inhibition of central A1-adenosine receptors” value (shortened to “irreversible inhibition”) was “behave pharmacologically as irreversible inhibitors of central A1 -adenosine receptors”.

For the compound `CCCn1c(=O)c2[nH]c(-c3ccc(OCC(=O)NCCNC(=S)Nc4ccc(Br)cc4)cc3)nc2n(CCC)c1=O` [Compound 10], the Ki in test [1] (setting [4]) came to 7.26 ± 0.9 nM.

Turning to `O=C(Cc1ccc(Nc2ncnc3c2ncn3[C@@H]2O[C@H](CO)[C@@H](O)[C@H]2O)cc1)ON1C(=O)CCC1=O` [Compound 24], the inhibition constant (Ki) in test [1] (Table II, rat, against [3H]PIA, read-out: Ki at central A1 receptors, rat) came out at 8.37 ± 0.73 nM.

`CCCn1c(=O)c2[nH]c(-c3ccc(OCC(=O)NCCNC(=O)Cc4ccc(NC(=S)Nc5ccc(N=C=S)cc5)cc4)cc3)nc2n(CCC)c1=O` [Compound 15e] registered a Ki in test [1] of 30 nM. For the same compound, the inhibition at 0.1 µM in test [3] (read-out: % inhib (conc)) came to 10%.

For `O=C(Cc1ccc(NC(=O)Cc2ccc(Nc3ncnc4c3ncn4[C@@H]3O[C@H](CO)[C@@H](O)[C@H]3O)cc2)cc1)NCCNC(=S)Nc1ccc([N+](=O)[O-])cc1` [Compound 34], the inhibitory constant (Ki) in test [1] (setting [6]) turned out to be 1 nM.

`CCCn1c(=O)c2[nH]c(-c3ccc(OCC(=O)ON4C(=O)CCC4=O)cc3)nc2n(CCC)c1=O` [Compound 1]: the Ki in test [1] (setting [4]) turned out to be 9 ± 0.7 nM. In addition, in test [3] (read-out: % inhib (conc)), the inhibition at 0.5 µM was determined as 0%. The “irreversible inhibition” value in test [3] is on record as “only the longest of the series, SUS-XAC, 21, inhibits binding irreversibly”.

Turning to `O=C(Cc1ccc(NC(=O)Cc2ccc(Nc3ncnc4c3ncn4[C@@H]3O[C@H](CO)[C@@H](O)[C@H]3O)cc2)cc1)NCCNC(=S)Nc1c(F)c(F)c(F)c(F)c1F` [Compound 32], the Ki in test [1] (setting [6]) is 1.64 ± 0.47 nM.

On to `CCCn1c(=O)c2[nH]c(-c3ccc(OCC(=O)NCCNC(=O)Cc4ccc(N)cc4)cc3)nc2n(CCC)c1=O` [Compound 15d], for which, in test [1] (setting [4]), the Ki worked out at 40 nM.

For `CCCn1c(=O)c2[nH]c(-c3ccc(OCC(=O)NCCNC(=O)CCCCCCC(=O)ON4C(=O)CCC4=O)cc3)nc2n(CCC)c1=O` [Compound 21], the Ki in test [1] (setting [4]) amounted to 3.69 ± 0.71 nM; in test [2] (setting [5]) it was 15.8 nM. In test [3] (read-out: % inhib (conc)), the inhibition at 0.5 µM came out at 40%. Moreover, the “irreversible inhibition” value in test [3] was “inhibits binding irreversibly”.

Consider `O=C(Cc1ccc(NC(=O)Cc2ccc(Nc3ncnc4c3ncn4[C@@H]3O[C@H](CO)[C@@H](O)[C@H]3O)cc2)cc1)NCCN=C=S` [Compound 26b], for which the Ki stood at 4 nM in test [1] and 2.5 nM in test [2].

On to `O=C(Cc1ccc(NC(=O)Cc2ccc(Nc3ncnc4c3ncn4[C@@H]3O[C@H](CO)[C@@H](O)[C@H]3O)cc2)cc1)NCCNC(=S)Nc1ccc(S(=O)(=O)O)cc1` [Compound 35], for which, in test [1] (setting [6]), the Ki amounted to 100 nM.

For `COc1ccc(NC(=S)NCCNC(=O)Cc2ccc(NC(=O)Cc3ccc(Nc4ncnc5c4ncn5[C@@H]4O[C@H](CO)[C@@H](O)[C@H]4O)cc3)cc2)cc1` [Compound 30], the Ki in test [1] (setting [6]) is 5 nM.

For the compound `CCCn1c(=O)c2[nH]c(-c3ccc(OCC(=O)NCCNC(=O)CBr)cc3)nc2n(CCC)c1=O` [Compound 18, 8-[2-[4-bromoacetylaminoethyl[amino[carbonyl[methyloxyphenyl]]]]]-1,3-dipropylxanthine], the Ki in test [1] (setting [4]) is 17.6 ± 1.5 nM.

Regarding `CCCn1c(=O)c2[nH]c(-c3ccc(OCC(=O)NCCNC(=S)Nc4ccc(C)cc4)cc3)nc2n(CCC)c1=O` [Compound 6], in test [1] (setting [4]), the inhibition constant Ki is 16 ± 2.9 nM.

On to `O=C(Cc1ccc(Nc2ncnc3c2ncn3[C@@H]2O[C@H](CO)[C@@H](O)[C@H]2O)cc1)Nc1ccc(CC(=O)ON2C(=O)CCC2=O)cc1` [Compound 25], for which, in test [1] (setting [6]), the Ki came out at 9.6 ± 1.44 nM.

In the case of `CCCn1c(=O)c2[nH]c(-c3ccc(OCC(=O)NCCNC(=O)c4ccc(CBr)cc4)cc3)nc2n(CCC)c1=O` [Compound 19], the inhibitory constant (Ki) was determined as 11.5 ± 1.5 nM in test [1] (setting [4]) and 6.9 nM in test [2] (setting [7]).

In the case of `CCCn1c(=O)c2nc(-c3ccc(OCC(=O)NCCN=C(S)Nc4ccc([N+](=O)[O-])cc4)cc3)[nH]c2n(CCC)c1=O` [Compound 11], the Ki in test [1] (setting [6]) stood at 5 nM.

For the compound `CCCn1c(=O)c2nc(-c3ccc(OCC(=O)NCCN=C(S)Nc4ccc(F)cc4)cc3)[nH]c2n(CCC)c1=O` [Compound 8], the Ki in test [1] (setting [6]) turned out to be 12.8 nM.

Regarding `CCCn1c(=O)c2[nH]c(-c3ccc(OCC(=O)NCCNC(=O)Cc4ccc(NC(=O)OC(C)(C)C)cc4)cc3)nc2n(CCC)c1=O` [Compound 15c], the Ki in test [1] (setting [4]) came to 53 ± 12 nM.

Consider `CCCn1c(=O)c2[nH]c(-c3ccc(OCC(=O)NCCNC(=S)Nc4c(F)c(F)c(F)c(F)c4F)cc3)nc2n(CCC)c1=O` [Compound 9], for which the Ki in test [1] (setting [4]) is 9.07 ± 0.9 nM.

Take `O=C(Cc1ccc(NC(=O)Cc2ccc(Nc3ncnc4c3ncn4[C@@H]3O[C@H](CO)[C@@H](O)[C@H]3O)cc2)cc1)NCCNC(=S)Nc1ccc(F)cc1` [Compound 31a]: the Ki in test [1] (setting [6]) was 5 nM.

Take `O=C(CBr)NCCNC(=O)Cc1ccc(NC(=O)Cc2ccc(Nc3ncnc4c3ncn4[C@@H]3O[C@H](CO)[C@@H](O)[C@H]3O)cc2)cc1` [Compound 36]: in test [1] (setting [6]), the Ki is 5 nM.

For the compound `CCCn1c(=O)c2[nH]c(-c3ccc(OCC(=O)NCCNC(=O)CCSSc4ccccn4)cc3)nc2n(CCC)c1=O` [Compound 22], the Ki in test [1] (setting [4]) was 23.8 ± 3.51 nM.

For the compound `Cc1ccc(NC(=S)NCCNC(=O)Cc2ccc(NC(=O)Cc3ccc(Nc4ncnc5c4ncn5[C@@H]4O[C@H](CO)[C@@H](O)[C@H]4O)cc3)cc2)cc1` [Compound 29], the Ki in test [1] (setting [6]) was 3.72 ± 0.44 nM.

Consider `CCCn1c(=O)c2[nH]c(-c3ccc(OCC(=O)NCCNC(=O)CCCCC(C)=O)cc3)nc2n(CCC)c1=O` [Compound 17], for which the Ki came to 44 ± 9 nM in test [1] (setting [4]) and 3.2 nM in test [2] (setting [7]). The inhibition at 0.5 µM in test [3] (read-out: % inhib (conc)) came out at 0%.

In test [2], `NCCNC(=O)Cc1ccc(NC(=O)Cc2ccc(Nc3ncnc4c3ncn4[C@@H]3O[C@H](CO)[C@@H](O)[C@H]3O)cc2)cc1` [Compound 26a, reference compound] gave a Ki of 0.2 nM.

Consider `O=C(Cc1ccc(NC(=O)Cc2ccc(Nc3ncnc4c3ncn4[C@@H]3O[C@H](CO)[C@@H](O)[C@H]3O)cc2)cc1)NCCNC(=S)Nc1ccccc1F` [Compound 31b], for which, in test [1] (setting [6]), the Ki came out at 10.7 nM.

As to `CCCn1c(=O)c2[nH]c(-c3ccc(OCC(=O)NCCNS(=O)(=O)c4ccc(C)cc4)cc3)nc2n(CCC)c1=O` [Compound 14], the Ki in test [1] (setting [4]) is 72 ± 7.2 nM.

With `CCCn1c(=O)c2[nH]c(-c3ccc(OCC(=O)NCCNS(=O)(=O)c4cccc(S(=O)(=O)Cl)c4)cc3)nc2n(CCC)c1=O` [Compound 13], the Ki in test [1] (setting [4]) was found to be 2.5 ± 0.47 nM. Moreover, in test [3] (read-out: % inhib (conc)), the inhibition at 0.1 µM stood at 20%.

Regarding `CCCn1c(=O)c2[nH]c(-c3ccc(OCC(=O)NCCNC(=O)CCC(=O)ON4C(=O)CCC4=O)cc3)nc2n(CCC)c1=O` [Compound 20b], the Ki in test [1] (setting [4]) was 20 ± 4.5 nM. In test [3] (read-out: % inhib (conc)), the inhibition at 0.5 µM was determined as 0%. Moreover, the “irreversible inhibition” value in test [3] is “only the longest of the series, SUS-XAC, 21, inhibits binding irreversibly”.

Consider `CCCn1c(=O)c2nc(-c3ccc(OCC(=O)NCCNC(=O)CCCN4C(=O)C=CC4=O)cc3)[nH]c2n(CCC)c1=O` [Compound 23], for which, in test [1] (setting [6]), the Ki was 63 nM.

As for `CCCn1c(=O)c2[nH]c(-c3ccc(OCC(=O)NCCNC(=O)CNC(=S)Nc4ccc(N=C=S)cc4)cc3)nc2n(CCC)c1=O` [Compound 16c], the Ki in test [1] (setting [4]) was found to be 6.85 ± 1.14 nM. In test [3] (read-out: % inhib (conc)), the inhibition at 0.5 µM is 50%. In addition, the “irreversible inhibition” value in test [3] is “behave pharmacologically as irreversible inhibitors of central A1 -adenosine receptors”.

With `O=C(Cc1ccc(NC(=O)Cc2ccc(Nc3ncnc4c3ncn4[C@@H]3O[C@H](CO)[C@@H](O)[C@H]3O)cc2)cc1)NCCNC(=S)Nc1ccc(Br)cc1` [Compound 33], in test [1] (setting [6]), the Ki worked out at 1.19 ± 0.14 nM.
